The values that follow come from patent US20250213519A1, “SYNERGY FOR INCREASING INSULIN SENSITIVITY” (Board of Supervisors of Louisiana State University and …, priority 2022, published 2025).

In one data set the test system is PPARg P-serine 273. Kind of data set: Immunoblot of PPARg phosphorylation at serine 273. Format: cell-based, human. The settings on record: 50 nM myricetin + 8 μM NR + 2 μM BC, 7 days. How it is done:
Phosphorylation of PPARg by CDK5 at serine-273 is an important mechanism for inhibition of target genes for insulin sensitivity^7. Inhibitors of CDK5 have potential as diabetes drugs^8. Several studies have provided that myricetin is a CDK5 inhibitor and has insulin sensitizing characteristics that make it a potential therapeutic for diabetes^9,10. We previously analyzed NRBC for effects on PPARg phosphorylation at serine 273. Human adipocytes were treated with 8 μM NR and 2 μM BC for three, five and seven days, and protein was isolated and analyzed on immunoblots probed with an antibody specific for human P-serine 273 PPARg. The same blot was stripped and re-probed with an antibody for total human PPARg. Values in the histogram represent (P-ser 273 PPARg)/(total PPARg). […] The effect increases over time.
The experiment for analysis of phosphorylation of PPARg at P-273 was repeated to determine whether adding myricetin to NRBC can further inhibit PPARg P-273 phosphorylation. Cells were treated for seven days with 8 μM NR, 2 μM BC and 50 nM myricetin. Protein was analyzed on immunoblots probed with the same antibodies.

For data set [1] the following is noted: mice; cited from earlier work.
Data set [2] can be described thus: Estimated human Cmax of myricetin by conversion from rats. Particulars: for Cmax: human, oral.

Take `O=c1c(O)c(-c2cc(O)c(O)c(O)c2)oc2cc(O)cc(O)c12` [myricetin]: the entries for the “PPARg P-273 phosphorylation, myricetin added to NRBC” value in the data set on PPARg P-serine 273 and with PPARg P-serine 273 (listed as Myricetin) were “did not further decrease PPARg P-273 relative to NRBC” and “did not alter phosphorylation of PPARg at serine-273”, respectively. In data set [1], the Tox is given as 1000 mg/kg/day. The “Human Cmax” value in data set [2] (564 mg dose, conversion from 50 mg/kg in rats) was 39400 nM. Besides, the Cmax is roughly 400 nM in data set [2] (10 mg) and roughly 2500 nM in data set [2] (564 mg).
